Laboratory results from ChEMBL document CHEMBL1201861, “Genomics of Drug Sensitity in Cancer screening data, Wellcome Trust Sanger Institute”.

system: ES5; assay: cells; format: functional, cell-based, Homo sapiens; conditions: Homo sapiens, ES5;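 also: growth inhibition of human ES5 cells, read out by a cell viability assay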
Description: SANGER: Inhibition of human ES5 cell growth in a cell viability assay.

Row | SMILES | IC50 [nM]
1 | COc1cccc2c1C(=O)c1c(O)c3c(c(O)c1C2=O)C[C@@](O)(C(=O)CO)C[C@@H]3O[C@H]1C[C@H](N)[C@H](O)[C@H](C)O1 [DOXORUBICIN] | 39.2

system: HD-MY-Z; assay: cells; format: functional, cell-based, Homo sapiens; conditions: Homo sapiens, HD-MY-Z;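 also: growth inhibition of HD-MY-Z cells, read out with a cell viability assay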
Description: SANGER: Inhibition of human HD-MY-Z cell growth in a cell viability assay.

Row | SMILES | IC50 [nM]
2 | COc1cccc2c1C(=O)c1c(O)c3c(c(O)c1C2=O)C[C@@](O)(C(=O)CO)C[C@@H]3O[C@H]1C[C@H](N)[C@H](O)[C@H](C)O1 [DOXORUBICIN] | 273

system: PSN1; assay: cells; format: functional, cell-based, Homo sapiens; conditions: Homo sapiens, PSN1;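 also: suppression of growth of human PSN1 cells, read out by a cell viability assay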
Description: SANGER: Inhibition of human PSN1 cell growth in a cell viability assay.

Row | SMILES | IC50 [nM]
3 | COc1cccc2c1C(=O)c1c(O)c3c(c(O)c1C2=O)C[C@@](O)(C(=O)CO)C[C@@H]3O[C@H]1C[C@H](N)[C@H](O)[C@H](C)O1 [DOXORUBICIN] | 11.2

system: OS-RC-2; assay: cells; format: functional, cell-based, Homo sapiens; conditions: Homo sapiens, OS-RC-2;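 also: growth inhibition of human OS-RC-2 cells, measured by a cell viability assay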
Description: SANGER: Inhibition of human OS-RC-2 cell growth in a cell viability assay.

Row | SMILES | IC50 [nM]
4 | COc1cccc2c1C(=O)c1c(O)c3c(c(O)c1C2=O)C[C@@](O)(C(=O)CO)C[C@@H]3O[C@H]1C[C@H](N)[C@H](O)[C@H](C)O1 [DOXORUBICIN] | 182

system: RKO; assay: cells; format: functional, cell-based, Homo sapiens; conditions: Homo sapiens, RKO;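 also: growth inhibition of human RKO cells, read out with a cell viability assay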
Description: SANGER: Inhibition of human RKO cell growth in a cell viability assay.

Row | SMILES | IC50 [nM]
5 | COc1cccc2c1C(=O)c1c(O)c3c(c(O)c1C2=O)C[C@@](O)(C(=O)CO)C[C@@H]3O[C@H]1C[C@H](N)[C@H](O)[C@H](C)O1 [DOXORUBICIN] | 22.3

system: HCC1187; assay: cells; format: functional, cell-based, Homo sapiens; conditions: Homo sapiens, HCC1187;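 also: growth inhibition of HCC1187 cells, read out with a cell viability assay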
Description: SANGER: Inhibition of human HCC1187 cell growth in a cell viability assay.

Row | SMILES | IC50 [nM]
6 | COc1cccc2c1C(=O)c1c(O)c3c(c(O)c1C2=O)C[C@@](O)(C(=O)CO)C[C@@H]3O[C@H]1C[C@H](N)[C@H](O)[C@H](C)O1 [DOXORUBICIN] | 591

system: HCE-4; assay: cells; format: functional, cell-based, Homo sapiens; conditions: Homo sapiens, HCE-4;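 also: cell viability assay measuring inhibition of growth in the human HCE-4 cell line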
Description: SANGER: Inhibition of human HCE-4 cell growth in a cell viability assay.

Row | SMILES | IC50 [nM]
7 | COc1cccc2c1C(=O)c1c(O)c3c(c(O)c1C2=O)C[C@@](O)(C(=O)CO)C[C@@H]3O[C@H]1C[C@H](N)[C@H](O)[C@H](C)O1 [DOXORUBICIN] | 18.1

system: MMAC-SF; assay: cells; format: functional, cell-based, Homo sapiens; conditions: Homo sapiens, MMAC-SF;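 also: growth inhibition of human MMAC-SF cells, read out with a cell viability assay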
Description: SANGER: Inhibition of human MMAC-SF cell growth in a cell viability assay.

Row | SMILES | IC50 [nM]
8 | COc1cccc2c1C(=O)c1c(O)c3c(c(O)c1C2=O)C[C@@](O)(C(=O)CO)C[C@@H]3O[C@H]1C[C@H](N)[C@H](O)[C@H](C)O1 [DOXORUBICIN] | 106

system: MOLT-4; assay: cells; format: functional, cell-based, Homo sapiens; conditions: Homo sapiens, MOLT-4;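 also: growth inhibition of MOLT-4 cells, determined with a cell viability readout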
Description: SANGER: Inhibition of human MOLT-4 cell growth in a cell viability assay.

Row | SMILES | IC50 [nM]
9 | COc1cccc2c1C(=O)c1c(O)c3c(c(O)c1C2=O)C[C@@](O)(C(=O)CO)C[C@@H]3O[C@H]1C[C@H](N)[C@H](O)[C@H](C)O1 [DOXORUBICIN] | 22.9

system: SF-539; assay: cells; format: functional, cell-based, Homo sapiens; conditions: Homo sapiens, SF-539;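 also: Read-out is a cell viability assay, with IC50 reflecting inhibition of cell growth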
Description: SANGER: Inhibition of human SF539 cell growth in a cell viability assay.

Row | SMILES | IC50 [nM]
10 | COc1cccc2c1C(=O)c1c(O)c3c(c(O)c1C2=O)C[C@@](O)(C(=O)CO)C[C@@H]3O[C@H]1C[C@H](N)[C@H](O)[C@H](C)O1 [DOXORUBICIN] | 122

system: LU-139; assay: cells; format: functional, cell-based, Homo sapiens; conditions: Homo sapiens, LU-139
Description: SANGER: Inhibition of human LU-139 cell growth in a cell viability assay.

Row | SMILES | IC50 [nM]
11 | COc1cccc2c1C(=O)c1c(O)c3c(c(O)c1C2=O)C[C@@](O)(C(=O)CO)C[C@@H]3O[C@H]1C[C@H](N)[C@H](O)[C@H](C)O1 [DOXORUBICIN] | 345

system: CW-2; assay: cells; format: functional, cell-based, Homo sapiens; conditions: Homo sapiens, CW-2;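 also: growth inhibition of CW-2 cells, read out by a cell viability assay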
Description: SANGER: Inhibition of human CW-2 cell growth in a cell viability assay.

Row | SMILES | IC50 [nM]
12 | COc1cccc2c1C(=O)c1c(O)c3c(c(O)c1C2=O)C[C@@](O)(C(=O)CO)C[C@@H]3O[C@H]1C[C@H](N)[C@H](O)[C@H](C)O1 [DOXORUBICIN] | > 1020

system: COLO-320-HSR; assay: cells; format: functional, cell-based, Homo sapiens; conditions: Homo sapiens, COLO-320-HSR;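 also: growth inhibition of COLO-320-HSR cells, determined with a cell viability assay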
Description: SANGER: Inhibition of human COLO-320-HSR cell growth in a cell viability assay.

Row | SMILES | IC50 [nM]
13 | COc1cccc2c1C(=O)c1c(O)c3c(c(O)c1C2=O)C[C@@](O)(C(=O)CO)C[C@@H]3O[C@H]1C[C@H](N)[C@H](O)[C@H](C)O1 [DOXORUBICIN] | 513

system: A388; assay: cells; format: functional, cell-based, Homo sapiens; conditions: Homo sapiens, A388;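 also: growth inhibition of human A388 cells, read out with a cell viability assay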
Description: SANGER: Inhibition of human A388 cell growth in a cell viability assay.

Row | SMILES | IC50 [nM]
14 | COc1cccc2c1C(=O)c1c(O)c3c(c(O)c1C2=O)C[C@@](O)(C(=O)CO)C[C@@H]3O[C@H]1C[C@H](N)[C@H](O)[C@H](C)O1 [DOXORUBICIN] | 28.5

system: KINGS-1; assay: cells; format: functional, cell-based, Homo sapiens; conditions: Homo sapiens, KINGS-1;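 also: cell viability assay measuring suppression of KINGS-1 cell growth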
Description: SANGER: Inhibition of human KINGS-1 cell growth in a cell viability assay.

Row | SMILES | IC50 [nM]
15 | COc1cccc2c1C(=O)c1c(O)c3c(c(O)c1C2=O)C[C@@](O)(C(=O)CO)C[C@@H]3O[C@H]1C[C@H](N)[C@H](O)[C@H](C)O1 [DOXORUBICIN] | 1020

system: NOS-1; assay: cells; format: functional, cell-based, Homo sapiens; conditions: Homo sapiens, NOS-1;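 also: growth inhibition of the human NOS-1 cell line, read out with a cell viability assay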
Description: SANGER: Inhibition of human NOS-1 cell growth in a cell viability assay.

Row | SMILES | IC50 [nM]
16 | COc1cccc2c1C(=O)c1c(O)c3c(c(O)c1C2=O)C[C@@](O)(C(=O)CO)C[C@@H]3O[C@H]1C[C@H](N)[C@H](O)[C@H](C)O1 [DOXORUBICIN] | 79.1

system: LU-134-A; assay: cells; format: functional, cell-based, Homo sapiens; conditions: Homo sapiens, LU-134-A
Description: SANGER: Inhibition of human LU-134-A cell growth in a cell viability assay.

Row | SMILES | IC50 [nM]
17 | COc1cccc2c1C(=O)c1c(O)c3c(c(O)c1C2=O)C[C@@](O)(C(=O)CO)C[C@@H]3O[C@H]1C[C@H](N)[C@H](O)[C@H](C)O1 [DOXORUBICIN] | 67.7

system: LB373-MEL-D; assay: cells; format: functional, cell-based, Homo sapiens; conditions: Homo sapiens, LB373-MEL-D;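 also: growth inhibition of the cell line, read out in a cell viability assay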
Description: SANGER: Inhibition of human LB373-MEL-D cell growth in a cell viability assay.

Row | SMILES | IC50 [nM]
18 | COc1cccc2c1C(=O)c1c(O)c3c(c(O)c1C2=O)C[C@@](O)(C(=O)CO)C[C@@H]3O[C@H]1C[C@H](N)[C@H](O)[C@H](C)O1 [DOXORUBICIN] | 345

system: TK-10; assay: cells; format: functional, cell-based, Homo sapiens; conditions: Homo sapiens, TK-10;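 also: growth inhibition of TK-10 cells, read out in a cell viability assay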
Description: SANGER: Inhibition of human TK10 cell growth in a cell viability assay.

Row | SMILES | IC50 [nM]
19 | COc1cccc2c1C(=O)c1c(O)c3c(c(O)c1C2=O)C[C@@](O)(C(=O)CO)C[C@@H]3O[C@H]1C[C@H](N)[C@H](O)[C@H](C)O1 [DOXORUBICIN] | 115

system: EW-16; assay: cells; format: functional, cell-based, Homo sapiens; conditions: Homo sapiens, EW-16;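 also: growth inhibition of human EW-16 cells, read out as cell viability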
Description: SANGER: Inhibition of human EW-16 cell growth in a cell viability assay.

Row | SMILES | IC50 [nM]
20 | COc1cccc2c1C(=O)c1c(O)c3c(c(O)c1C2=O)C[C@@](O)(C(=O)CO)C[C@@H]3O[C@H]1C[C@H](N)[C@H](O)[C@H](C)O1 [DOXORUBICIN] | 1.91

system: KG-1; assay: cells; format: functional, cell-based, Homo sapiens; conditions: Homo sapiens, KG-1;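 also: growth inhibition of KG-1 cells, read out by a cell viability assay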
Description: SANGER: Inhibition of human KG-1 cell growth in a cell viability assay.

Row | SMILES | IC50 [nM]
21 | COc1cccc2c1C(=O)c1c(O)c3c(c(O)c1C2=O)C[C@@](O)(C(=O)CO)C[C@@H]3O[C@H]1C[C@H](N)[C@H](O)[C@H](C)O1 [DOXORUBICIN] | 362

system: SHP77; assay: cells; format: functional, cell-based, Homo sapiens, SHP-77; conditions: Homo sapiens, SHP77;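 also: growth inhibition of human SHP-77 cells measured by a cell viability assay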
Description: SANGER: Inhibition of human SHP-77 cell growth in a cell viability assay.

Row | SMILES | IC50 [nM]
22 | COc1cccc2c1C(=O)c1c(O)c3c(c(O)c1C2=O)C[C@@](O)(C(=O)CO)C[C@@H]3O[C@H]1C[C@H](N)[C@H](O)[C@H](C)O1 [DOXORUBICIN] | > 1020

system: KE-37; assay: cells; format: functional, cell-based, Homo sapiens; conditions: Homo sapiens, KE-37;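 also: growth inhibition of KE-37 cells, read out with a cell viability assay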
Description: SANGER: Inhibition of human KE-37 cell growth in a cell viability assay.

Row | SMILES | IC50 [nM]
23 | COc1cccc2c1C(=O)c1c(O)c3c(c(O)c1C2=O)C[C@@](O)(C(=O)CO)C[C@@H]3O[C@H]1C[C@H](N)[C@H](O)[C@H](C)O1 [DOXORUBICIN] | 21

system: NCI-H1155; assay: cells; format: functional, cell-based, Homo sapiens; conditions: Homo sapiens, NCI-H1155;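 also: cell growth inhibition measured by a viability assay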
Description: SANGER: Inhibition of human NCI-H1155 cell growth in a cell viability assay.

Row | SMILES | IC50 [nM]
24 | COc1cccc2c1C(=O)c1c(O)c3c(c(O)c1C2=O)C[C@@](O)(C(=O)CO)C[C@@H]3O[C@H]1C[C@H](N)[C@H](O)[C@H](C)O1 [DOXORUBICIN] | 580

system: MC116; assay: cells; format: functional, cell-based, Homo sapiens; conditions: Homo sapiens, MC116;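 also: growth inhibition of MC116 cells, read out with a cell viability assay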
Description: SANGER: Inhibition of human MC116 cell growth in a cell viability assay.

Row | SMILES | IC50 [nM]
25 | COc1cccc2c1C(=O)c1c(O)c3c(c(O)c1C2=O)C[C@@](O)(C(=O)CO)C[C@@H]3O[C@H]1C[C@H](N)[C@H](O)[C@H](C)O1 [DOXORUBICIN] | 391
